This is an account of results in patent US11878063B2, “Engineered ligands and uses thereof” (Children's Medical Center Corporation, priority 2019, dated 2024).

One assay addresses T1, PTHR16E (Homo sapiens, UniProt Q03431, A83I/D81R/G76A/K80A/K82Q/P78E/R79L/S71Q/S73D/S75E/T74Q).
T1 construct: expressed in transfected cells
T1 sequence (Q03431 27-593 S71Q/S73D/T74Q/S75E/G76A/P78E/R79L/K80A/D81R/K82Q/A83I): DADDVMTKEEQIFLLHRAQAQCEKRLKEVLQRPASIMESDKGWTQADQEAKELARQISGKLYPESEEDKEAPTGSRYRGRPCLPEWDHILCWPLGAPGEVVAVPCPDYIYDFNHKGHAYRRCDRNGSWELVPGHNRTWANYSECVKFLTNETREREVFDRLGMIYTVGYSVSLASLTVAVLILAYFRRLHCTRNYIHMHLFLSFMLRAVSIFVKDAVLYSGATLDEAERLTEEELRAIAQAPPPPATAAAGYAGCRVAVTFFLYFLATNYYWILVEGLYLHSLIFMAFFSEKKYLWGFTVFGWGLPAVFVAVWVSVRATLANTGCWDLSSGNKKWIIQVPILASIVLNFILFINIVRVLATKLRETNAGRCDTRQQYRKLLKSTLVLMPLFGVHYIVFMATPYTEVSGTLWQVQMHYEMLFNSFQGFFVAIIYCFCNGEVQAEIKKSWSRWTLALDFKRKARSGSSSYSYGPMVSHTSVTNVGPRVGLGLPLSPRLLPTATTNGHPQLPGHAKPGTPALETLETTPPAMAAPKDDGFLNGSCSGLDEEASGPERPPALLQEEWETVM
The assay is described as follows: cAMP induction in HEK293 cells stably expressing PTHR16E (6E/Ubc6e epitope tag in exon 2 segment). The assay is classed as cell-based. As to the method: Measurement of cAMP response. These assays were performed as previously described^27. Briefly, HEK-293-derived cell lines that stably express the Glosensor cAMP reporter (Promega Corp.)^30 and PTHR1, a PTHR1 variant, or PTHR2 were seeded into white sided 96 well plates (50,000 cells/well) and grown to confluency. Confluent monolayers of cells were pre-incubated with CO2 independent medium containing D-luciferin (0.5 mM) at 37° C. until a stable baseline level of luminescence was established (20 min). Varying concentrations of ligands were then added, and the time course of luminescence response was recorded using BioTek plate reader.
(§1) Data calculations. Data were processed using Microsoft Excel and GraphPad Prism 6. Data from cAMP dose-response assays were analyzed using a sigmoidal dose-response model with variable slope. Data sets were statistically compared by using Student's t test (two-tailed) assuming unequal variances for the two sets.
The portion of PTHR1 encoded by exon 2 is not resolved in structural studies (FIG. 12—Panel d)^13, 14, 17, is not important for ligand binding^18, and in past work has been targeted as a site for receptor modification^18, 19. A construct was generated that encodes a PTHR1 variant in which a 14-residue fragment from exon 2 was replaced with a 14-mer epitope tag from the intracellular protein UBC6e (PTHR16E, FIG. 12—Panel d)^20. A receptor construct in which a pH-sensitive green fluorescent protein variant (GFP) was inserted into the portion of the receptor encoded by exon 2 (PTHR1GFP in FIGS. 17A to 17C)^19. Another version of PTHR1 in which yellow fluorescent protein (YFP) replaces the entire extracellular domain (PTHR1YFPΔECD, FIG. 12—Panel e)^21, was also used.

The target in assay [1] is T2, rat PTHR1 (Rattus norvegicus, UniProt P25961).
T2 construct: expressed in transfected cells
T2 sequence (P25961 27-591): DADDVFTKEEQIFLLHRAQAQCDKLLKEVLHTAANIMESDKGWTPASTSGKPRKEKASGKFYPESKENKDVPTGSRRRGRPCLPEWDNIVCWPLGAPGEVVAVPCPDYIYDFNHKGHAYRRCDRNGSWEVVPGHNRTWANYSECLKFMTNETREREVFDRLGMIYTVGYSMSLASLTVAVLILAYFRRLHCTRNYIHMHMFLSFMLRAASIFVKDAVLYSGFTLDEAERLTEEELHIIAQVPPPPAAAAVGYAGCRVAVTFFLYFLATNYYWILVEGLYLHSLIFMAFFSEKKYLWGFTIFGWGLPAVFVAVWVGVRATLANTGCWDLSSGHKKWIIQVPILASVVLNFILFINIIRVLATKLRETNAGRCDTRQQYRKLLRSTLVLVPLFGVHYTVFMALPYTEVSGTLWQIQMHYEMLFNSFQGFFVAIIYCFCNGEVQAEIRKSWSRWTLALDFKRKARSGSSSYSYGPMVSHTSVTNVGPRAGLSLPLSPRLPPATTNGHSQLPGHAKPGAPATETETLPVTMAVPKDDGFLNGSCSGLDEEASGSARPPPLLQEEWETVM
Description: cAMP induction in HEK293 cells stably expressing rat PTHR1. Type of assay: cell-based. As to the method: (§2) Measurement of cAMP response. These assays were performed as previously described^27. […] Confluent monolayers of cells were pre-incubated with CO2 independent medium containing D-luciferin (0.5 mM) at 37° C. until a stable baseline level of luminescence was established (20 min). Varying concentrations of ligands were then added, and the time course of luminescence response was recorded using BioTek plate reader.
as §1

The next assay has as its target T3, human PTHR1 (Homo sapiens, UniProt Q03431).
T3 construct: expressed in transfected cells
T3 sequence (Q03431 27-593): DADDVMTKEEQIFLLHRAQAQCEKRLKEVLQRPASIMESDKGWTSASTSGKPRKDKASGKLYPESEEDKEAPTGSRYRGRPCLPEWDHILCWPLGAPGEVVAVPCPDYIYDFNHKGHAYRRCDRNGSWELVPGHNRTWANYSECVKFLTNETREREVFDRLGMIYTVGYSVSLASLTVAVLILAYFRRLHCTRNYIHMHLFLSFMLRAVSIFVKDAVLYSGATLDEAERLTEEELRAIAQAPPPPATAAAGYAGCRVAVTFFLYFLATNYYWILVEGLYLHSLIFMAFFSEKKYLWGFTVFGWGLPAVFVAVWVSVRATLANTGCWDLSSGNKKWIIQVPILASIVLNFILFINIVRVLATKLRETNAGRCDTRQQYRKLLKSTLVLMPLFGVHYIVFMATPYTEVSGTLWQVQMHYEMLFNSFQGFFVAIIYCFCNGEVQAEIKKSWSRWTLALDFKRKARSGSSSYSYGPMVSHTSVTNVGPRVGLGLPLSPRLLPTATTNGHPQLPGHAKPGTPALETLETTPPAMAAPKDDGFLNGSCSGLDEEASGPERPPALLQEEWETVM
The assay is described as follows: cAMP induction (cAMP-responsive luciferase) in HEK293 cells stably expressing human PTHR1. Type of assay: cell-based. Here is the method:
as §2, §1

In assay [2] the target is T4, PTHR2 (Homo sapiens, UniProt P49190).
T4 construct: expressed in transfected cells
The assay is described as follows: cAMP induction in HEK293 cells stably expressing human PTHR2. Particulars: at 100 uM. The assay is classed as cell-based. Here is the method:
as §2, §1

The subject of the next assay is PTHR1YFPΔECD. Description: Flow cytometry staining by VHH-Alexafluor647 of HEK293 cells expressing PTHR1YFPΔECD. Type of assay: binding, human. Here is the method:
(§3) Flow cytometry. Suspensions of cells in PBS were stained for 1 hour on ice in the presence of indicated concentrations of VHH probes functionalized with Alexafluor647. Cells were pelleted by centrifugation and washed with PBS prior to analysis by flow cytometry (BD Accuri C6). Gating was performed on forward scatter/side scatter profiles to analyze intact cells. Data was analyzed using FlowJo version 7.6. The median fluorescent intensity (MFI) of stained cells was used to generate VHH binding dose response curves (FIG. 20).
Background: A flow cytometer gives signals particle by particle.

The subject of the next assay is PTHR1GFP. Description: Flow cytometry staining by VHH-Alexafluor647 of HEK293 cells expressing PTHR1GFP. Type of assay: binding, human. Particulars: 100 nM VHH. As to the method: FIGS. 17A-17C: Use of PTHR1-GFP. (FIG. 17A) Hypothetical structure of PTHR1 with GFP engrafted into exon 2 bound to a GFP binding nanobody. (FIG. 17B) Flow cytometry analysis of cells stably expressing PTHR1-GFP. HEK293 cell lines in suspension were incubated on ice with 100 nM VHH sortagged with Alexafluor647, pelleted by centrifugation, washed and analyzed. […] This weak staining is likely related to the inability of VHHGFP to tightly bind the pH-sensitive GFP variant known as pHluorin2 engrafted into the receptor (ref. 19, main text). (FIG. 17C) HEK293 cells stably expressing PTHR1-GFP were treated with varied doses of the indicated peptides or conjugates and activation was assessed by measuring luminescence from a cAMP-activated luciferase variant. Values listed represent EC50 values (mean±SD). Each value comes from ≥3 independent experiments. Further details, including the number of replicates for each measurement and the normalized maximal responses induced, are reported in Table 5.
Flow cytometry. Suspensions of cells in PBS were stained for 1 hour on ice in the presence of indicated concentrations of VHH probes functionalized with Alexafluor647. Cells were pelleted by centrifugation and washed with PBS prior to analysis by flow cytometry (BD Accuri C6). Gating was performed on forward scatter/side scatter profiles to analyze intact cells. Data was analyzed using FlowJo version 7.6. […]

Assay [3] has as its target T4, PTHR2. The assay is described as follows: Flow cytometry staining by VHH-Alexafluor647 of HEK293 cells expressing PTHR2. Type of assay: binding. Particulars: 100 nM VHH; listed as VHH22A3. As to the method:
as §3

A further assay concerns PTHR1. Description: Flow cytometry staining by VHH-Alexafluor647 of HEK293 cells expressing PTHR1 constructs that retain the ECD. Type of assay: binding, human. Particulars: 100 nM VHH. As to the method: as §3
Assay [4] has as its target T2, rat PTHR1. The assay is described as follows: Flow cytometry staining by VHH-Alexafluor647 of HEK293 cells expressing rat PTHR1. Type of assay: binding. The settings on record: 100 nM VHH. Here is the method: as §3

“Also recorded” adds a separate entry of the source. Square brackets hold non-standard residues; d marks the D form. Peptide text beside a SMILES is read from it. Aib = CC(C)(N)C(=O)O Some results are limits rather than exact numbers.

T4 sequence (P49190 25-550): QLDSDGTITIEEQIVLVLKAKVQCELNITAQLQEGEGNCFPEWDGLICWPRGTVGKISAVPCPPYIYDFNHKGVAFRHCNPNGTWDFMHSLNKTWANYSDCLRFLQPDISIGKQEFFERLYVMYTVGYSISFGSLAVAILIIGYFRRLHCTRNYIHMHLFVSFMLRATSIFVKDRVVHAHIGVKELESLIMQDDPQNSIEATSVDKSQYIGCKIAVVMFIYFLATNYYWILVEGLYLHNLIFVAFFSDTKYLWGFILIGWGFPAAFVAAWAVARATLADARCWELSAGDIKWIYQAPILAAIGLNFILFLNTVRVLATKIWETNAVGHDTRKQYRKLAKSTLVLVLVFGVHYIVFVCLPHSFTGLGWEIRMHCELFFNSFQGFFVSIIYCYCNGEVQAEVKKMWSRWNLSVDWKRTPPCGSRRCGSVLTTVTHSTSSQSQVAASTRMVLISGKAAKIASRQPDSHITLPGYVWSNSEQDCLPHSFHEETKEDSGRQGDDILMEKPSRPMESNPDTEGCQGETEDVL

As for `CC[C@H](C)[C@H](NC(=O)[C@H](CCC(=O)O)NC(=O)C(C)(C)NC(=O)[C@@H](NC(=O)[C@H](C)N)C(C)C)C(=O)N[C@@H](CCC(N)=O)C(=O)N[C@@H](CC(C)C)C(=O)N[C@@H](CCSC)C(=O)N[C@@H](Cc1c[nH]cn1)C(=O)N[C@@H](CCC(N)=O)C(=O)N[C@@H](CCCNC(=N)N)C(=O)N[C@@H](CS)C(N)=O` [PTH(1-11)] (H-AV[Aib]EIQLMHQRC-NH2), the EC50 was 94 ± 74 nM on PTHR16E, 120 ± 90.3 nM at rat PTHR1 [1] and 516 ± 238 nM on human PTHR1. Besides, the “response at 100 uM, hPTHR2” value at PTHR2 [2] came to 20%.
In the case of “VHHGFP: nanobody that binds GFP and YFP, SEQ ID NO: 73”, the “staining of PTHR1YFPΔECD cells (in words)” value in the assay on PTHR1YFPΔECD (100 nM VHH) is listed as “stained”. The EC50 in the assay on PTHR1YFPΔECD (flow cytometry, on ice, read-out: half-maximal staining concentration, PTHR1YFP-del-NT cells) is less than 10 nM. Besides, the “staining of PTHR1GFP cells (in words)” value in the assay on PTHR1GFP is listed as “only weakly stained”.

B1: VHHPTHR: nanobody that recognizes the PTHR1 extracellular domain, SEQ ID NO: 74, from US 2010/0062004 (protein)
VHH: EVQLVESGGGLVQAGGSLRLSCAASGNIFANNIMGWYRQPPGKEREFVAHVSHDGDSMYAVSVKGRFAISRKDATNLYLQMNSLKPEDTAIYFCRLLNIPTQGRMEGFWGQGTQVTVSS
For the molecule B1, the “binding to PTHR2 (in words)” value with PTHR2 [3] was “lack of binding”. For the same molecule, the “binding to PTHR1 constructs retaining the ECD (in words)” value with PTHR1 was “bound all constructs that retained the PTHR1 ECD; also recorded: binds to PTHR1”. Moreover, in the assay with rat PTHR1 [4], the “binding to rat PTHR1 (in words)” value is recorded as “bound”.
